Assay results reported in patent US9566265B2, “Carbazole compounds and therapeutic uses of the compounds” (Incuron, LLC, priority 2008, dated 2017).
Values after ≈ are worked out from the molar mass of the structure shown. Like-named read-outs stand apart in the source and are kept apart here.

Key:
[1] = system: Af293 strain of A. fumigatus; assay: XTT viability assay; type: cell-based, Aspergillus fumigatus
Procedure: This strain was selected because it is one of the best characterized strains and was the strain used for sequencing the A. fumigatus genome. XTT viability assay is based on the reduction of the tetrazolium salt (XTT) in the presence of menadione as an electron-coupling agent. There is a relationship between the number of viable fungi and the amount of XTT reduction (16).
The same methods previously described in performing the XTT assay (17) were used. Af293 conidia were plated on Sabouraud BHI slants with chloramphenicol and gentamicin (Becton Dickinson, Md.), incubated for 7 to 10 days at room temperature, and harvested by washing the slant with 10 ml of 0.05% Tween 20 in normal saline (NS). The conidial suspension then was passed through a 100-μm filter, counted on a hemacytometer, and diluted to 2.0×10^6 CFU/ml. Conidia then were diluted 1:50 in MOPS (morpholinepropanesulfonic acid)-buffered RPMI (pH 7.0). A stock solution of Example 15 dissolved in DMSO was used. […] Following the addition of drug-containing medium to each well, the conidial suspension (100 μl) was added (t=0 h). Control wells contained conidia, medium, and vehicle without drug. Blank wells consisted of medium only without conidia. […] One hundred microliters of the supernatant was transferred to a new plate, and the optical density at 450 nm (OD450) was determined by using a Labsystems Multiskan Plus plate reader. […]

Bacillus subtilis = assay: antibacterial cytotoxicity assay, gram(+) bacteria (OD600); type: cell-based; settings: B. subtilis, 48 hours, over a range of potencies; FIG. 13B
Procedure: In vitro test to evaluate the effect of carbazole compounds on gram(-) and gram(+) bacteria. Two days prior to the start of the cytotoxicity assay, inoculate DH5-α and B. subtilis into 1 ml of corresponding media from glycerol stocks. Allow to grow during the course of the day at 37° C. with shaking. Streak each bacteria on the appropriate agar plates using a sterile inoculation loop and allow to grow overnight at 37° C. in the bacteria incubator. Using a sterile inoculation loop, pick a single colony of bacteria and inoculate 5 ml of the corresponding media in a 14 ml snap cap tube. Grow overnight ( 16 h) at 37° C. with shaking. […] Dilute 5 ml cultures of DH5-α and B. subtilis to an OD600 nm of 0.002, which corresponds to about 2×10^6 cells/ml in a volume sufficient for the experiment (dependent on the number of plates). Plate out 50 μl into each well of X 96-well plates (X=# plates needed for a given experiment). […] Chemicals for testing are prepared by dilution of stock solutions in LB Broth or Nutrient Broth for DH5-α and B. subtilis studies, respectively. Cells are treated with the final chemical concentrations presented in the scheme below (Table 2). Stock solutions are made up in DMSO. […] However, this concentration is dependent on the solubility of a given chemical and actual stock concentrations must be noted at time of experiment. Each library chemical to be tested requires 2 rows of a 96-well plate, thus 4 chemicals ([…]) can be tested in one plate simultaneously. In addition to test chemicals, each plate should include positive and negative controls. As positive control, ampicillin is used at 100 μg/ml. […] Dilutions of chemicals to be added to the plate are made up as 2× concentrations in appropriate bacteria media and added to corresponding wells in a volume of 50 μl. […] This process is repeated until all 10 2× doses are prepared. […] Following the addition of carbazole compounds to 96-well plates containing bacteria, plates are transferred to the 37° C. bacteria incubator for 48 hours. After the incubation, the OD600 mm for each well of the 96-well plates will be measured. […] The % DMSO control is plotted vs compound concentration to generate sigmoid shaped curves. After three runs are complete, the raw data for all three runs is used for IC50 calculations.

[2] = system: human HT-29 colon adenocarcinoma xenografts
Procedure: In this study, the antitumor effect and toxicity of the three carbazoles against HCT-8 and HT29 colon cancer tumors were compared with treatment beginning when the tumor size reached 150-200 mg (about 7 days after tumor transplantation).
Eight to twelve-week-old female athymic nude mice (nu/nu, body weight 22-25 g) were obtained from Harlan Sprague Dawley Inc. (Indianapolis, Ind.) and maintained at five mice/cage with water and food ad libitum according to an institutionally approved animal protocol.
Human ileocecal adenocarcinoma HCT-8 and colon adenocarcinoma HT-29 xenografts were used. The xenografts were initially established by injecting s.c 10^6 cultured cells and tumors were passed several generations by transplanting about 50 mg non-necrotic tumor (2-3 pieces) via a trocar from the passage tumors when the tumors reach to 1-1.5 g.
Treatment was initiated 7 days after tumor transplantation when the tumors reached 150-200 mg. The mice in the control group received the vehicle (0.2% hydroxypropylmethylcellulose) at 200 μl per 20 g mouse body weight (same as the treatment groups). Five mice were used for each experimental group with 10 tumors (1 tumor each in the left and right side flanks).
Two axes (mm) of tumor (L, longest axis; W, shortest axis) were measured with the aid of a Vernier caliper. Tumor weight (mg) was estimated using a formula: tumor weight=½ (L×W2). Tumor measurements were taken daily at the same time as drug treatment and 3-4 times a week of post therapy.
The kinetics of drug-induced toxicities (body weight loss, diarrhea, and lethality) were determined daily for the first 10 days after treatment and every two days thereafter.
Antitumor activity was assessed by maximum tumor growth inhibition (MTRI) which is the mean tumor weight of treated group (MTWTG) compared with untreated control group (MTWCG) at the same time point (MTRI=MTWTG−MTWCG)÷MTWCG×100%). The tumor doubling time (TDT) was defined as the mean time for the tumor to reach twice its initial weight. Tumor response was expressed as partial tumor response (PR) when tumor weight was reduced at least 50% of the initial tumor size and complete tumor response (CR) was defined as the inability to detect tumor upon palpation at the initial site of tumor appearance.

A. fumigatus = assay: in vitro susceptibility CLSI M38A2, MIC; settings: Aspergillus fumigatus
Description: Eight Aspergillus spp. strains were used throughout the study. Six A. fumigatus, one A. flavus and one A. terreus also were used. The A. fumigatus group included two itraconazole-resistant strains (RIT13 and RIT5 strains) (1), one triazole cross-resistant strain (MUT10) (2, 3), one echinocandin cross-resistant strain (EMFRS678P) (4), and 2 wild type susceptible isolates (R21 and ATCC13073).

[3] = system: Caki1 human renal cell carcinoma cells; assay: Caki1 renal cell carcinoma xenograft efficacy test
Procedure: In an efficacy test using these three compounds, athymic nude mice were inoculated subcutaneously with a suspension of Caki1 human renal cell carcinoma cells into both rear flanks. When at least one tumor in a mouse reached 20-50 mm^3, treatment was commenced. […] As a positive control, one group was treated with 40 mg/kg Sunitinib, an approved drug for the treatment of renal cell carcinoma. Treatment was given for 4 weeks on a 5 day on/2 day off schedule. After treatment was completed, mice were monitored for an additional 4 weeks to determine how quickly tumor growth returned to normal.

**Q.** What does the source list for CCN(CC)CCn1c2ccc3c(c2c2c4c(ccc21)C(=O)CC4)CCC3=O [Example 15]?
**A.** IC50 ([1]; Aspergillus fumigatus, XTT assay at 24 h): ~2.5 µM; concentration for complete suppression of fungal growth ([1]; visual inspection of the wells): greater than 12.5 μM; antibacterial effect (Bacillus subtilis): antibacterial effect; delay of tumor growth (control double time 7.8 days) [2]: 76%; inhibitory rate / tumor growth inhibition [2]: 58%; Antitumor Activity MTGI (%) ([2]; p.o. at MTD, 5 days on/2 days off per week, Example 15 5, Example 7 30, Example 13 25 mg/kg/d): 58.4 ± 6.4%; Toxicity (%) lethality ([2]; same): 40%; CR (%) ([2]; same, complete tumor response): 0%; Toxicity (%) MWL ([2]; same, maximum weight loss of pretreatment body weight): 17.9 ± 6.8%; PR (%) ([2]; same, partial tumor response): 0%; Antitumor Activity TDT ([2]; same, tumor doubling time): 13.1 ± 2.3 days; MIC (A. fumigatus; ATCC13073, read-out: MIC* (24 hs), strain ATCC13073, WT, Susceptible): 2.56 µM (≈ 0.959 µg/mL); MIC (A. fumigatus; ATCC13073, read-out: MIC* (48 hs), strain ATCC13073, WT, Susceptible): 5.13 µM (≈ 1.92 µg/mL); MIC (A. fumigatus; read-out: 24 hs MIC Geom. Means, A. fumigatus strains): 1.59 µM (≈ 0.595 µg/mL); MIC (A. fumigatus; read-out: MIC* (24 hs), strain EMFRS678P, Fks1pS678P, Echinocandin cross-resistant): 1.28 µM (≈ 0.479 µg/mL); MIC (A. fumigatus; read-out: MIC* (24 hs), strain MUT10, Cyp51Ap G138C, Triazole cross resistant): 0.66 µM (≈ 0.247 µg/mL); MIC (A. fumigatus; read-out: MIC* (24 hs), strain R21, WT, Susceptible): 1.28 µM (≈ 0.479 µg/mL); MIC (A. fumigatus; read-out: MIC* (24 hs), strain RIT5, Itraconazole resistant): 0.66 µM (≈ 0.247 µg/mL); MIC (A. fumigatus; read-out: MIC* (24 hs), strain RIT13, Itraconazole resistant): 1.61 µM (≈ 0.603 µg/mL); MIC (A. fumigatus; read-out: MIC* (48 hs), strain EMFRS678P, Fks1pS678P, Echinocandin cross-resistant): 2.56 µM (≈ 0.959 µg/mL); MIC (A. fumigatus; read-out: MIC* (48 hs), strain MUT10, Cyp51Ap G138C, Triazole cross resistant): 1.28 µM (≈ 0.479 µg/mL); MIC (A. fumigatus; read-out: MIC* (48 hs), strain R21, WT, Susceptible): 2.56 µM (≈ 0.959 µg/mL); MIC (A. fumigatus; read-out: MIC* (48 hs), strain RIT5, Itraconazole resistant): 1.28 µM (≈ 0.479 µg/mL); MIC (A. fumigatus; read-out: MIC* (48 hs), strain RIT13, Itraconazole resistant): 1.28 µM (≈ 0.479 µg/mL); weight loss ([3]; 5 mg/kg oral, short-term): 10-15%; tumor growth inhibition compared to the vehicle control ([3]; Day 24 (end of treatment), oral gavage 5 day on/2 day off, Example 7 30, Example 15 5, Example 13 25, Sunitinib 40 mg/kg): 50%
